Experimental data: patent EP1379135B1, “FORMULATIONS COMPRISING ENTRAPPED ACTIVE INGREDIENTS AND USES THEREOF” (THE SCRIPPS RESEARCH INSTITUTE, priority 2001, dated 2002)

Assays:
p38 = test: IL-1β induced MAP kinase activation, p38 (phospho Western blot); assay type: cell-based, human; conditions: induced by IL-1β
Method: (§1) Whole cell extracts were prepared from 3 x 10^6 chondrocytes stimulated as described above by lysing the cells on the plate with ice cold lysis buffer (10 mM TrisHCl pH 7.6, 158 mM NaCl, 1 mM EDTA, 0.1% SDS, 1% Triton X-100, leupeptin […], aprotinin 1µg/ml, and 0.5 mM PMSF), which was added immediately before use. The lysates were transferred to Eppendorf tubes and centrifuged at 20,000 g for 30 min at 4 °C. The supernatants were transferred into fresh tubes, and the protein concentration was determined by Bradford assay. Similar amounts of protein were separated by 10% SDS PAGE and transferred to a nitrocellulose filter (Schleicher & Schuell, Keene, NH) by electroblotting. The filter was blocked overnight in 5% milk powder/TBS-T solution and then further incubated with one of the following antibodies: anti-iNOS (C-19, Santa Cruz Biotechnology, Inc., Santa Cruz, CA), anti-COX-2 (Cayman Chemical, Ann Arbor, MI), anti-COX-1 (H-3, Santa Cruz Biotechnology, Inc.), anti-phospho-JNK (phosphoThr 183 /Tyr 185, New England Biolabs, Inc., Beverly, MA), anti-phospho-p38MAP (phospho-Thr […]/Tyr 182, New England Biolabs, Inc.) or anti-phospho-ERK (phosphoThr 180/Tyr 182, New England Biolabs, Inc.) for 2 hrs. […]

iNOS protein = iNOS protein expression (Western Immunoblot); assay type: cell-based, human
Method: as §1

NF-κB = test: IL-1β-induced nuclear translocation of NF-κB (gel shift of nuclear extracts); assay type: cell-based, human
Method: Nuclear protein extracts were prepared as follows: 2 x 10^6 chondrocytes were stimulated as indicated. The cells were harvested by trypsinization, washed once with ice cold PBS and lysed in 10 mM Tris-HCl buffer pH 7.5 containing 2 mM MgCl2, 140 mM NaCl, 0.5 mM DTT, 0.05% Triton X-100, 0.5 mM PMSF, leupeptin 1 µg/ml and aprotinin 1 µg/ml. The nuclei were spun down, resuspended in 20 mM HEPES buffer pH 7.9, containing 25% glycerol, 420 mM NaCl, 1.5 mM MgCl2, 0.2 mM EDTA, 0.5 mM DTT, 0.5 mM PMSF, leupeptin 1 µg/ml and aprotinin 1 µg/ml, and rotated at 4°C for 30 minutes. After removal of the nuclear debris by centrifugation, the protein concentration of the lysate was determined by Bradford assay. Equal amounts of the nuclear extracts (2 µg) were incubated for 15 minutes at room temperature with poly-(dI-dC)poly-(dI-dC) (0.1 mg/ml), BSA (1 mg/ml), 1 x […] counts of double-stranded radiolabeled oligodeoxynucleotide containing the NF-κB consensus DNA binding site (sequence: 5'-[…]-3') in 20 mM HEPES buffer pH 7.9 containing 10% glycerol, 420 mM NaCl, 1.5 mM MgCl2, 0.2 mM EDTA, 0.5 mM DTT and 0.5 mM PMSF. For competition experiments, unlabeled NF-κB oligodeoxynucleotide or oligodeoxynucleotide containing the Oct-1 consensus sequence were added at 100-fold molar excess to the binding reactions 10 minutes prior to the addition of radiolabeled NFκB oligodeoxynucleotide. […]

hexosaminidase = test: IL-1β mediated increase in hexosaminidase secretion in chondrocytes; assay type: cell-based, human
COX-2 mRNA = COX-2 mRNA expression in IL-1β stimulated chondrocytes (Northern Blot); assay type: cell-based, human
Method: (§2) Total RNA was isolated from 2 x 10^6 chondrocytes stimulated using the STAT-60 reagent (Tel-Test, Friendswood, TX). RNA for each sample was quantified photometrically, and 5 µg was separated on 1.2% agarose, 6% formaldehyde gels. After electrophoresis, the gels were photographed, and the RNA was transferred onto HybondN nylon membranes (BRL, Baithesburg, MD) by capillary blotting. Membranes were air-dried and incubated for 2 hrs at 80°C. Prehybridization was done for 2 hrs at 60°C in 5 x SCC, 1 mM EDTA, 0.2% SDS and 5 x Denhardt solution. Radio-labeled probe was added and hybridization was carried out overnight at 60°C. After hybridization, the filters were rinsed twice in 2 x SSC, 0.1% SDS, washed once in 2 x SCC, 0.1 % SDS at 60°C and once in 0.2 x SCC, 0.1 % SDS at 60°C. The membranes were covered with plastic wrap and exposed with an intensifying screen for 12 hr at -70°C. The probes used for the hybridization were prepared as described earlier (Geng et al., (1993) J. Immunol. 151:6692; Geller et al., (1993) Proc. Natl. Acad. Sci. USA 90:3491).

[1] = system: TNFα induced nitric oxide (NO) production in normal human articular chondrocytes; test: TNFα induced NO production in chondrocytes; assay type: cell-based
iNOS mRNA = iNOS mRNA expression (Northern Blot); assay type: cell-based, human
Method: as §2

IL-1β mediated increase in hexosaminidase secretion (hexosaminidase): did not suppress
SMILES: CC(=O)N[C@H]1C(O)O[C@H](CO)[C@@H](O)[C@@H]1O (stereo partly shown) [GlcNAc, N-acetylglucosamine]
p38 MAP kinase activation (p38): does not inhibit | expression of iNOS protein (iNOS protein): strongly inhibited | IL-1β-induced nuclear translocation of NF-κB (NF-κB): did not affect | expression of COX-2 mRNA (COX-2 mRNA): inhibited | TNFα induced nitric oxide (NO) production [1]: inhibit | expression of iNOS mRNA (iNOS mRNA): strongly inhibited
